From US20100204149A1, “USE OF OCTREOTIDE AS A THERAPEUTIC AGENT” (priority 2007, published 2010)

Tests used:
[1] = tested on: hepatitis B virus (HBV) ayw strain; assay: HBV replication assay, secreted HBV DNA by TaqMan PCR; format: cell-based; settings: HepG2-2.2.15; peptide 10 micrograms per ml; six days; HBV DNA in supernatant
[2] = Cell viability (dye uptake) in HBV assay; format: cell-based; settings: human, HepG2-2.2.15, peptide 10 micrograms per ml
HCMV strain AD169 = assay: HCMV plaque reduction assay in MRC-5 cells; format: cell-based; settings: peptide 10 micrograms per ml, 7-10 days
Source text: Ganciclovir was used as positive control.

MRSA = assay: Methicillin Resistant Staphylococcus Aureus (MRSA) assay; format: cell-based; settings: peptide 10 micrograms per ml, read visually
Experimental: (§1) The antibacterial assay was conducted using clear, U-bottom 96-well microtiter plates. Cation-adjusted Mueller-Hinton Broth (MHB) was used for testing MRSA. The peptide of the invention (0.1 ml of each—10 micrograms per ml—) was dispensed into wells in duplicate. Then the wells were inoculated with 5×10^5 CFU/mL MRSA in 0.1 ml volume. For control purposes, each plate included 4 wells containing media without bacterial inoculum and 4 wells containing medium with inoculum but without peptide. The plates were incubated for 12 h at 37° C., and read visually 18-24 hours post-incubation. Growth control of MRSA was examined first to determine adequacy of media preparations and growth conditions. Acceptable growth is defined as ≧2 mm wide button of cells at the bottom of each sample well, or obvious turbidity in the culture supernatant. Test wells were examined and scored as positive/negative for activity. A positive score for activity is based on complete inhibition of macroscopic growth of the test MRSA.

Pseudomonas aeruginosa = Pseudomonas aeruginosa assay; format: cell-based; settings: peptide 10 micrograms per ml, read visually
Experimental: as §1, with “Pseudomonas aeruginosa.” for “MRSA.”, “Pseudomonas aeruginosa” for “MRSA”

Human A549 cells = assay: Apoptosis prevention assay (C2 ceramide, Annexin-5); format: cell-based; settings: pretreated 30 min with peptide 10 micrograms per ml
Source text: Human A549 cells (carcinomic human alveolar basal epithelial cells) were utilized in the experiments employing the Annexin-5 apoptosis assay. Annexin-5 is a member of a highly conserved protein family that binds acidic phospholipids in a calcium-dependent manner. […] Phosphatidylserine is translocated from the inner side of the plasma membrane to the outer layer when cells undergo death by apoptosis or cell necrosis and serves as a signal by which cell destined for death are recognized by phagocytes. A549 cells were pretreated for 30 min with test peptide -10 micrograms per ml—followed by the exposure to C2 ceramide. Ceramide mediates cell apoptosis through the activation of the mitogen activating protein kinase (MAPK) and the stress activated kinase (JNK/SAPK). C2 ceramide is a synthetic, membrane soluble analog of ceramide.

[3] = tested on: spleen cells of Ovalbumin immunized Balb/c mice; assay: Th1/Th2 cytokine profiling assay; format: cell-based, mouse; settings: peptide 10 micrograms per ml; Ovalbumin restimulation; 72 hours
Source text: The Balb/c mice (originated in 1923, it is a popular strain and is used in many different research disciplines. Also classified as an inbred from the production of 20 or more successive brother-sister matings, the Balb/c mouse is albino and small in size) were immunized on Days 1, 15, and 29 with Ovalbumin (Ovalbumin is the main protein found in egg white, commonly used to stimulate an immunological reaction in test animals) in PBS (5 micrograms/injection). On day 50, spleens of the mice were harvested (3 weeks after last boost with Ovalbumin). Cells were cultured (2×10^5/well in triplicate) and incubated with culture medium or test peptide—10 micrograms per ml—for 30 min. Thereafter, additional Ovalbumin was added to the cells at 10 micrograms/ml for in vitro restimulation of the cells. 72 hours later, cell supernatants were harvested and assayed using the Becton Dickinson Mouse Th1/Th2 Cytokine CBA Kit. This kit can be used to measure Interleukin-2 (IL-2), Interleukin-4 (IL-4), Interleukin-5 (IL-5), Interferon-γ (IFN-γ), and Tumor Necrosis Factor-α (TNF-α) protein levels in a single sample. The kit performance has been optimized for analysis of physiologically relevant concentrations ([…] levels) of specific cytokine proteins in tissue culture supernatants and serum samples.

[4] = tested on: macrophages from human PBMC; assay: TNF alpha production assay in LPS-stimulated macrophages; format: cell-based; settings: TNF alpha ELISA; peptide 10 micrograms per ml; lipopolysaccharide 200 ng/ml; overnight
Experimental: The macrophages were prepared by adherence of PBMC to the plastic wells of the plates. After 8 days in culture in the presence of recombinant human macrophage-colony stimulating factor at 2 ng/ml, differentiated macrophages were preincubated with test peptide—10 micrograms per ml—for 30 min, followed by in-well stimulation by the addition of lipopolysaccharide at a final concentration of 200 ng/ml. Not stimulated macrophages served as negative background control.
After overnight incubation, supernatants from the control and LPS-stimulated cultures were harvested and assayed for TNF alpha production employing a TNF alpha specific ELISA.

[5] = tested on: Human Peripheral Blood Mononuclear Cells (PBMC); settings: T cell proliferation; peptide 10 micrograms per ml; 3 days
Experimental: Human Peripheral Blood Mononuclear Cells (PBMC) were obtained from normal human donors. The T cell proliferation was induced by stimulation of the cells with the T cell mitogen phytohemagglutinin (PHA), either in the absence (positive proliferation control), or in the presence of test peptide—10 micrograms per ml—to examine their effects on the T cell proliferating response. 10^5/well PBMC were plated in 96-well microtiter plates and assayed in duplicate with the peptide. Cell cultures were incubated at 37° C. for 3 days in a 5% CO2 incubator and were thereafter pulsed with 1 microCi/well ^3H-thymidine for additional 12 hours of culture. At the end of incubation time, the plates were harvested and the cells counted by liquid scintillation for the incorporation of ^3H-thymidine as a measure of T cell proliferation.

[6] = tested on: Human Peripheral Blood Mononuclear Cells (PBMC); settings: B cell proliferation; peptide 10 micrograms per ml; 3 days
Experimental: Human Peripheral Blood Mononuclear Cells (PBMC) were obtained from normal human donors. The B cell proliferation was induced by stimulation of the cells with the B cell mitogen Staphylococcus aureus Cowans I (SAC) plus Interleukin-2, either in the absence (positive proliferation control), or in the presence of test peptide—10 micrograms per ml—to examine their effects on the B cell response. 10^5/well PBMC were plated in 96-well microtiter plates and assayed in duplicate with the peptide. Cell cultures were incubated at 37° C. for 3 days in a 5% CO2 incubator and were thereafter pulsed with 1 microCi/well ^3H-thymidine for additional 12 hours of culture. At the end of incubation time, the plates were harvested and the cells counted by liquid scintillation for the incorporation of ^3H-thymidine as a measure of B cell proliferation.

[7] = Cytotoxicity (MTS cell viability) in HIV-1 assay; settings: human, CEM-SS cells
HIV-1IIIB = assay: HIV-1 antiviral assay (CPE reduction) in CEM-SS cells; settings: peptide 10 micrograms per ml; 6 days post-infection; MTS

Compound: C[C@@H](O)[C@@H]1NC(=O)[C@H](CCCCN)NC(=O)[C@@H](Cc2c[nH]c3ccccc23)NC(=O)[C@H](Cc2ccccc2)NC(=O)[C@@H](NC(=O)[C@H](N)Cc2ccccc2)CSSC[C@@H](C(=O)N[C@H](CO)[C@@H](C)O)NC1=O [Octreotide, H-D-Phe-Cys-Phe-D-Trp-Lys-Thr-Cys-L-threoninol]
- % inhibition of HBV replication in HEP G2 cells [1]: 13.4%
- viability at 144 h, 10 micrograms per ml [2]: 97.8%
- % plaque reduction (HCMV strain AD169): 0.0%
- % inhibition (MRSA): 0.0%
- % inhibition (Pseudomonas aeruginosa): 0.0%
- % prevention of ceramide induced apoptosis (Human A549 cells): 0.0%
- IFNγ spleen cells; TH1 response (% of control) [3]: 56.0 % of control
- IL-2 spleen cells (% of control) [3]: 159.5 % of control
- IL-4 spleen cells; TH2 response (% of control) [3]: 114.4 % of control
- IL-5 spleen cells; TH2 response (% of control) [3]: 96.1 % of control
- TNF-a spleen cells; TH1 response (% of control) [3]: 113.0 % of control
- % of LPS induction [4]: 105.8%
- % of PHA induced control [5]: 100.0%
- % of SAC/IL2 induced control [6]: 115.3%
- viability at 10 micrograms per ml [7]: 100%
- % CPE reduction in HIV-1 infected CEM-SS cells (HIV-1IIIB): 0.0%
